Results published in patent US20260265233A1, “BENZOTHIOPHENE DERIVATIVES AS RXFP1 AGONISTS” (BRISTOL-MYERS SQUIBB COMPANY, priority 2021, published 2026).

target: T1, human RXFP1 (Homo sapiens, UniProt Q9HBX9); experiment: hRXFP1 HEK293 cAMP assay (HTRF); format: cell-based; settings: HEK293 cells stably expressing human RXFP1; 30 min at rt; intracellular cAMP by HTRF
T1 construct: expressed in transfected cells
T1 sequence (Q9HBX9 1-757): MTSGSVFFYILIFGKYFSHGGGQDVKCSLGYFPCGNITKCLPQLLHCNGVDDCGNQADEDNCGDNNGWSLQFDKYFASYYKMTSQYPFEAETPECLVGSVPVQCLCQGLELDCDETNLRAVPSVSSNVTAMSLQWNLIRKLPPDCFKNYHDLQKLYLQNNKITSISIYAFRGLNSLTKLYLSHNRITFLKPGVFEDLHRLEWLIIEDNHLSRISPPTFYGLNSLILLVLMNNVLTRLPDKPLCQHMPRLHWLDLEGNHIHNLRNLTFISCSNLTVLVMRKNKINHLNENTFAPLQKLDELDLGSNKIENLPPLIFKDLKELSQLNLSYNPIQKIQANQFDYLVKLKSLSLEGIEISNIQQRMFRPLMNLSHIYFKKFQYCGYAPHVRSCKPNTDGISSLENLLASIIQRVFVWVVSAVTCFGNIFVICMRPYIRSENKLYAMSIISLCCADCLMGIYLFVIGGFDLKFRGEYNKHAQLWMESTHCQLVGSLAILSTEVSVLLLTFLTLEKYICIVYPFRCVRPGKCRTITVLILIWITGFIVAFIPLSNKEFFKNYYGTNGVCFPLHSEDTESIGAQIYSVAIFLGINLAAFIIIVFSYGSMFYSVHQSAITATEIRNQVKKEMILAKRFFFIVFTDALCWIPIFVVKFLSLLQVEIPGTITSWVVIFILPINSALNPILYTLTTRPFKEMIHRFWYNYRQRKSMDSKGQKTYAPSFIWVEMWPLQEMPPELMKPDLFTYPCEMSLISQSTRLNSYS
Outline: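 Agonism is measured as cAMP by HTRF, quantified from a standard curve via the 665/590 nm ratio and fitted with a four-parameter logistic equation. Compounds (0.010 nM to 50 μM final, 2% DMSO) were applied for 30 min at rt to human RXFP1-expressing HEK293 cells in assay buffer containing 0.5 mM IBMX.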

SMILES	EC50 [nM]
COc1ccc(C2CCCN(CC(O)CO)C2)cc1C(=O)Nc1c(C(=O)Nc2ccc(F)c(C(F)(F)F)c2)sc2cc(C(F)(F)F)ccc12 (centres unmarked) [Example 88, 3-(5-(1-(2,3-dihydroxypropyl)piperidin-3-yl)-2-methoxy-benzamido)-N-(4-fluoro-3-(trifluoromethyl)phenyl)-6-(trifluoromethyl) benzo[b] thiophene-2-carboxamide]	1540
COc1ccc(-c2cc(CN)ccc2F)cc1C(=O)Nc1c(C(=O)Nc2ccc(F)c(C(F)(F)F)c2)sc2cc(C(F)(F)F)ccc12 [Example 16, 3-(5′-(aminomethyl)-2′-fluoro-4-methoxy-[1,1′-biphenyl]-3-carboxamido)-N-(4-fluoro-3-(trifluoromethyl)phenyl)-6-(trifluoromethyl)benzo[b]thiophene-2-carboxamide]	677
COc1ccc(C2CCN(C3COC3)C2)cc1C(=O)Nc1c(C(=O)Nc2ccc(F)c(C(F)(F)F)c2)sc2cc(C(F)(F)F)ccc12 (centres unmarked) [Example 154, N-(4-fluoro-3-(trifluoromethyl)phenyl)-3-(2-methoxy-5-(1-(oxetan-3-yl)pyrrolidin-3-yl)benzamido)-6-(trifluoromethyl) benzo[b] thiophene-2-carboxamide]	553
COc1ccc(N2CCCC(C(=O)NS(C)(=O)=O)C2)cc1C(=O)Nc1c(C(=O)Nc2ccc(F)c(C(F)(F)F)c2)sc2cc(C(F)(F)F)ccc12 (single isomer, unassigned) [Example 6, 1-(3-((2-((4-fluoro-3-(trifluoromethyl)phenyl)carbamoyl)-6-(trifluoromethyl)benzo[b]thiophen-3-yl)carbamoyl)-4-methoxyphenyl)-N-(methylsulfonyl) piperidine-3-carboxamide]	349
COc1ccc(CNC(c2ccc(F)c(-c3ccc(OC)c(C(=O)Nc4c(C(=O)Nc5ccc(F)c(C(F)(F)F)c5)sc5cc(C(F)(F)F)ccc45)c3)c2)C(F)(F)F)cc1OC (single isomer, unassigned) [Example 115, 3-(5′-(1-((3,4-dimethoxybenzyl)amino)-2,2,2-trifluoroethyl)-2′-fluoro-4-methoxy-[1,1′-biphenyl]-3-carboxamido)-N-(4-fluoro-3-(trifluoromethyl)phenyl)-6-(trifluoromethyl) benzo[b] thiophene-2-carboxamide]	98
COc1ccc(C(=O)NCCS(C)(=O)=O)cc1C(=O)Nc1c(C(=O)Nc2ccc(F)c(C(F)(F)F)c2)sc2cc(C(F)(F)F)ccc12 [Example 232, N3-(2-((4-fluoro-3-(trifluoromethyl)phenyl)carbamoyl)-6-(trifluoromethyl)benzo[b]thiophen-3-yl)-4-methoxy-N1-(2-(methylsulfonyl)ethyl) isophthalamide]	4840
COc1ccc(N2CCCC2=O)cc1C(=O)Nc1c(C(=O)Nc2ccc(F)c(C(F)(F)F)c2)sc2cc(C(F)(F)F)ccc12 [Example 290, N-[4-fluoro-3-(trifluoromethyl)phenyl]-3-[2-methoxy-5-(2-oxopyrrolidin-1-yl)benzamido]-6-(trifluoromethyl)-1-benzothiophene-2-carboxamide]	1410
COc1ccc(-c2cc(CNCC(C)C)ccc2F)cc1C(=O)Nc1c(C(=O)Nc2ccc(F)c(C(F)(F)F)c2)sc2cc(C(F)(F)F)ccc12 [Example 19, N-(4-fluoro-3-(trifluoromethyl)phenyl)-3-(2′-fluoro-5′-((isobutylamino)methyl)-4-methoxy-[1,1′-biphenyl]-3-carboxamido)-6-(trifluoromethyl) benzo[b]thiophene-2-carboxamide]	1010
COc1ccc(-c2cncc(NS(C)(=O)=O)c2)cc1C(=O)Nc1c(C(=O)Nc2ccc(F)c(C(F)(F)F)c2)sc2cc(C(F)(F)F)ccc12 [Example 117, N-(4-fluoro-3-(trifluoromethyl)phenyl)-3-(2-methoxy-5-(5-(methyl-sulfonamido)pyridin-3-yl)benzamido)-6-(trifluoromethyl) benzo[b] thiophene-2-carboxamide]	131
COc1ccc(-c2cc(C(=O)O)ccc2F)cc1C(=O)Nc1c(C(=O)Nc2ccc(F)c(C(F)(F)F)c2)sc2ccccc12 [Example 15, 6-fluoro-3′-((2-((4-fluoro-3-(trifluoromethyl)phenyl)carbamoyl)benzo[b]thiophen-3-yl)carbamoyl)-4′-methoxy-[1, 1′-biphenyl]-3-carboxylic acid]	1560
COc1ccc(C2CC2C(=O)O)cc1C(=O)Nc1c(C(=O)Nc2ccc(F)c(C(F)(F)F)c2)sc2cc(C(F)(F)F)ccc12 (centres unmarked) [Example 46, 2-(3-((2-((4-fluoro-3-(trifluoromethyl)phenyl)carbamoyl)-6-(trifluoromethyl)benzo[b]thiophen-3-yl)carbamoyl)-4-methoxyphenyl) cyclopropane-1-carboxylic acid]	295
COc1ccc(C2CCCN(C(=O)CN(C)C)C2)cc1C(=O)Nc1c(C(=O)Nc2ccc(F)c(C(F)(F)F)c2)sc2cc(C(F)(F)F)ccc12 (single isomer, unassigned) [Example 87, 3-(5-(1-(dimethylglycyl)piperidin-3-yl)-2-methoxy-benzamido)-N-(4-fluoro-3-(trifluoromethyl)phenyl)-6-(trifluoromethyl) benzo[b] thiophene-2-carboxamide]	1160
COCCNC(=O)c1ccc(OC)c(C(=O)Nc2c(C(=O)Nc3ccc(F)c(C(F)(F)F)c3)sc3cc(C(F)(F)F)ccc23)c1 [Example 218, N3-(2-((4-fluoro-3-(trifluoromethyl)phenyl)carbamoyl)-6-(trifluoromethyl)benzo[b]thiophen-3-yl)-4-methoxy-N1-(2-methoxyethyl) isophthalamide]	1130
COc1ncc(C(=O)N2CC3(COC3)C2)cc1C(=O)Nc1c(C(=O)Nc2ccc(F)c(C(F)(F)F)c2)sc2cc(C(F)(F)F)ccc12 [Example 172, N-(2-((4-fluoro-3-(trifluoromethyl)phenyl)carbamoyl)-6-(trifluoromethyl)benzo[b]thiophen-3-yl)-2-methoxy-5-(2-oxa-6-azaspiro[3.3]heptane-6-carbonyl) nicotinamide]	701

Second part, the molecule after the results:

EC50 [nM]	SMILES
2020	COc1ccc(N2CCCC(C(=O)NCC(C)(C)O)C2)cc1C(=O)Nc1c(C(=O)Nc2ccc(F)c(C(F)(F)F)c2)sc2cc(C(F)(F)F)ccc12 (single isomer, unassigned) [Example 8, 1-(3-((2-((4-fluoro-3-(trifluoromethyl)phenyl)carbamoyl)-6-(trifluoromethyl)benzo[b]thiophen-3-yl)carbamoyl)-4-methoxyphenyl)-N-(2-hydroxy-2-methylpropyl) piperidine-3-carboxamide]
1610	COc1ccc(C(=O)N2CCC3(CC2)COC3)cc1C(=O)Nc1c(C(=O)Nc2ccc(F)c(C(F)(F)F)c2)sc2cc(C(F)(F)F)ccc12 [Example 222, N-(4-fluoro-3-(trifluoromethyl)phenyl)-3-(2-methoxy-5-(2-oxa-7-azaspiro[3.5]nonane-7-carbonyl)benzamido)-6-(trifluoromethyl) benzo[b] thiophene-2-carboxamide]
5.2	COc1ccc(C(=O)N2CC(S(C)(=O)=O)C2)cc1C(=O)Nc1c(C(=O)Nc2ccc(F)c(C(F)(F)F)c2)sc2cc(C(F)(F)F)ccc12 [Example 178, N-(4-fluoro-3-(trifluoromethyl)phenyl)-3-(2-methoxy-5-(3-(methylsulfonyl)azetidine-1-carbonyl)benzamido)-6-(trifluoromethyl) benzo[b] thiophene-2-carboxamide]
3100	COc1ccc(-c2cnc(C3(O)CCS(=O)(=O)C3)nc2)cc1C(=O)Nc1c(C(=O)Nc2ccc(F)c(C(F)(F)F)c2)sc2cc(C(F)(F)F)ccc12 (single isomer, unassigned) [Example 23, N-(4-fluoro-3-(trifluoromethyl)phenyl)-3-(5-(2-(3-hydroxy-1,1-dioxidotetrahydrothiophen-3-yl)pyrimidin-5-yl)-2-methoxybenzamido)-6-(trifluoromethyl)benzo[b]thiophene-2-carboxamide]
278	COc1ccc(-c2noc(C(C)(C)CO)n2)cc1C(=O)Nc1c(C(=O)Nc2ccc(F)c(C(F)(F)F)c2)sc2cc(C(F)(F)F)ccc12 [Example 274, N-(4-fluoro-3-(trifluoromethyl)phenyl)-3-(5-(5-(1-hydroxy-2-methylpropan-2-yl)-1,2,4-oxadiazol-3-yl)-2-methoxy-benzamido)-6-(trifluoromethyl) benzo[b] thiophene-2-carboxamide]
2410	COc1ccc(C2=NOC3CC(NC(=O)CO)CC23)cc1C(=O)Nc1c(C(=O)Nc2ccc(F)c(C(F)(F)F)c2)sc2cc(C(F)(F)F)ccc12 (single isomer, unassigned) [Example 266, N-[4-fluoro-3-(trifluoromethyl)phenyl]-3-{5-[5-(2-hydroxyacetamido)-3aH,4H,5H,6H, 6aH-cyclopenta[d] [1,2]oxazol-3-yl]-2-methoxy-benzamido}-6-(trifluoromethyl)-1-benzothiophene-2-carboxamide]
